System: Sceptre wheat
Experiment: Field wheat trial
Format: in vivo
Details: total N applied: nV-2 17 units, Flexi-N and Urea 59 units
Procedure: A fertiliser and/or soil improver composition (nV-2) is prepared using a method exemplified in Example III, with a sheep wool material (uncleaned and/or containing the fat layer) being deconstructed using a eutectic melt comprising urea:choline chloride at a ratio in the range of from about 7.5:1 to about 4:1, and with the temperature for the deconstruction of wool being in a range of approximately 145-165° C. (or more specifically approximately 145-160° C.). The composition (nV-2) was also prepared at a weight to volume ratio of the wool to eutectic melt in the range of from about 1 g:1 ml to about 1 g:25 ml.
The resultant fertiliser and/or soil improver composition (nV-2) comprises 35% (w/v) of total N (nitrogen) and has pH in the range of pH 5.5-6.5. For the field application, the composition nV-2 was mixed with water (as a carrier) in a ratio of approximately 52 L water to approximately 48 L of nV-2.
The field wheat trial was established as a randomised complete block of 5 treatments and 4 replicates in a single bank with each plot 12 meter long by 2 meter wide.
The effectiveness of the fertiliser and/or soil improver composition nV-2 according to the present invention on plant growth (wheat in this instance) and/or as an organic nitrogen nutrient source, is compared with a commercial inorganic fertiliser (Flexi-N, which is a commercially available fertiliser distributed by the Australian Company CSBP and contains three forms of N—urea, ammonium and nitrate, with a total N concentration of 42%), and with Urea alone (at 46% total N). […]
At 41 and 75 days after sowing, the NDVI was recorded for each plot using a hand-held green-seeker.
At 209 days after sowing, the trial was plot harvested for yield comparisons with grain samples collected from each plot and analysed for quality (protein, moisture, specific weight and screenings) according to industry standards.
All data collected was statistically analysed with the proprietary agricultural field research program ARM® using an Analysis of Variance at a confidence limit of 95%.

NC(N)=O [Urea]
Average crop yield (harvest 209 days after sowing): 7.848 | Average crop yield/Unit of N: 0.133 | Net crop yield/unit of N: 0.009
